Reference: patent publication US20120053053A1, “PYRIMIDINE DERIVATIVES AND THEIR USE AS HERBICIDES” (SYNGENTA CROP PROTECTION, LLC, priority 2009, published 2012)

Columns and labels:
[1] = tested on: Ipomea hederaceae (IPOHE); assay: Post-emergence biological efficacy (percentage damage); format: in vivo; details: Ipomoea hederacea, 312 h, dose 1,000 g/ha, evaluated after 13 days, 100=total damage, 0=no damage
How it was run: (§1)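 Post-emergence glasshouse test: plants sprayed 8 days after sowing (24/16 °C day/night, 14 h light, 65% humidity) at 250 or 1000 g/ha, formulated in acetone/water 50:50 with 0.5% Tween 20. Damage scored visually 13 days after treatment on a 0–100 scale (100 = total damage).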

[2] = tested on: Echinochloa crus-galli (ECHCG); assay: as above; format: in vivo; details: Echinochloa crus-galli, 312 h, dose 1,000 g/ha, evaluated after 13 days, 100=total damage, 0=no damage
How it was run: as §1

[3] = tested on: Solanum nigrum (SOLNI); assay: as above; format: in vivo; details: Solanum nigrum, 312 h, dose 1,000 g/ha, evaluated after 13 days, 100=total damage, 0=no damage
How it was run: as §1

[4] = tested on: Setaria faberi (SETFA); assay: as above; format: in vivo; details: Setaria faberi, 312 h, dose 1,000 g/ha, evaluated after 13 days, 100=total damage, 0=no damage
How it was run: as §1

[5] = tested on: Alopecurus myosuroides (ALOMY); assay: as above; format: in vivo; details: Alopecurus myosuroides, 312 h, dose 1,000 g/ha, evaluated after 13 days, 100=total damage, 0=no damage
How it was run: as §1

[6] = tested on: Amaranthus retoflexus (AMARE); assay: as above; format: in vivo; details: Amaranthus retroflexus, 312 h, dose 1,000 g/ha, evaluated after 13 days, 100=total damage, 0=no damage
How it was run: as §1

[7] = tested on: Ipomea hederaceae (IPOHE); assay: Pre-emergence biological efficacy (percentage damage); format: in vivo; details: Ipomoea hederacea, 312 h, dose 1,000 g/ha, evaluated after 13 days, 100=total damage, 0=no damage
How it was run: (§2)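 Sow seeds in pots of standard soil; hold 1 day in glasshouse (24/16 °C, 14 h light, 65% humidity). Spray aqueous solution from acetone/water (50:50) with 0.5% Tween 20 at 250 or 1000 g/ha. Grow on, watering twice daily; rate damage at 13 days.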

[8] = tested on: Echinochloa crus-galli (ECHCG); assay: as above; format: in vivo; details: Echinochloa crus-galli, 312 h, dose 1,000 g/ha, evaluated after 13 days, 100=total damage, 0=no damage
How it was run: as §2

[9] = tested on: Solanum nigrum (SOLNI); assay: as above; format: in vivo; details: Solanum nigrum, 312 h, dose 1,000 g/ha, evaluated after 13 days, 100=total damage, 0=no damage
How it was run: as §2

[10] = tested on: Setaria faberi (SETFA); assay: as above; format: in vivo; details: Setaria faberi, 312 h, dose 1,000 g/ha, evaluated after 13 days, 100=total damage, 0=no damage
How it was run: as §2

[11] = tested on: Alopecurus myosuroides (ALOMY); assay: as above; format: in vivo; details: Alopecurus myosuroides, 312 h, dose 1,000 g/ha, evaluated after 13 days, 100=total damage, 0=no damage
How it was run: as §2

[12] = tested on: Amaranthus retoflexus (AMARE); assay: as above; format: in vivo; details: Amaranthus retroflexus, 312 h, dose 1,000 g/ha, evaluated after 13 days, 100=total damage, 0=no damage
How it was run: as §2

Q: For `C=Cc1c(N)nc(-c2ccc(C)cc2)nc1C(=O)OC` [Compound 36-61, 4-amino-5-ethenyl-6-methoxycarbonyl-2-(4-methylphenyl)-pyrimidine], which pest or weed control at 1000 g/ha [1] is on record?
A: Its pest or weed control at 1000 g/ha is 90%.

Q: What about the pest or weed control at 1000 g/ha [2] of the same compound?
A: The pest or weed control at 1000 g/ha was 90%.

Q: And the pest or weed control at 1000 g/ha [3]?
A: Its pest or weed control at 1000 g/ha is 80%.

Q: And the pest or weed control at 1000 g/ha [4]?
A: The pest or weed control at 1000 g/ha was 80%.

Q: And the pest or weed control at 1000 g/ha [5]?
A: The pest or weed control at 1000 g/ha was 70%.

Q: And the pest or weed control at 1000 g/ha [6]?
A: Its pest or weed control at 1000 g/ha is 100%.

Q: And the pest or weed control at 1000 g/ha [7]?
A: The pest or weed control at 1000 g/ha was 100%.

Q: And the pest or weed control at 1000 g/ha [8]?
A: The pest or weed control at 1000 g/ha was 90%.

Q: What about the pest or weed control at 1000 g/ha [9] of the same compound?
A: The pest or weed control at 1000 g/ha was 100%.

Q: And the pest or weed control at 1000 g/ha [10]?
A: The pest or weed control at 1000 g/ha was 80%.

Q: What about the pest or weed control at 1000 g/ha [11] of the same compound?
A: Its pest or weed control at 1000 g/ha is 70%.

Q: And the pest or weed control at 1000 g/ha [12]?
A: Its pest or weed control at 1000 g/ha is 100%.

Q: And the melting point?
A: The melting point was 122 to 123 °C.

Q: For `COC(=O)c1nc(C2CC2)nc(N)c1C` [Compound 2-41], which pest or weed control at 1000 g/ha [1] is on record?
A: The pest or weed control at 1000 g/ha was 100%.

Q: What about the pest or weed control at 1000 g/ha [2] of the same compound?
A: The pest or weed control at 1000 g/ha was 60%.

Q: What about the pest or weed control at 1000 g/ha [3] of the same compound?
A: The pest or weed control at 1000 g/ha was 90%.

Q: And the pest or weed control at 1000 g/ha [4]?
A: The pest or weed control at 1000 g/ha was 80%.

Q: And the pest or weed control at 1000 g/ha [5]?
A: Its pest or weed control at 1000 g/ha is 40%.

Q: And the pest or weed control at 1000 g/ha [6]?
A: Its pest or weed control at 1000 g/ha is 100%.

Q: And the pest or weed control at 1000 g/ha [7]?
A: The pest or weed control at 1000 g/ha was 60%.

Q: And the pest or weed control at 1000 g/ha [8]?
A: The pest or weed control at 1000 g/ha was 20%.

Q: What about the pest or weed control at 1000 g/ha [9] of the same compound?
A: The pest or weed control at 1000 g/ha was 50%.

Q: And the pest or weed control at 1000 g/ha [10]?
A: Its pest or weed control at 1000 g/ha is 30%.

Q: What about the pest or weed control at 1000 g/ha [11] of the same compound?
A: The pest or weed control at 1000 g/ha was 20%.

Q: And the pest or weed control at 1000 g/ha [12]?
A: The pest or weed control at 1000 g/ha was 70%.

Q: And the melting point?
A: Its melting point is 152 to 153 °C.

Q: Which results are given for `C=Cc1c(OC)nc(-c2ccc(Cl)c(OC)c2F)nc1C(=O)OC` [Compound 27-398, 2-(4-chloro-2-fluoro-3-methoxyphenyl)-5-ethenyl-4-methoxy-6-methoxycarbonyl-pyrimidine]?
A: pest or weed control at 1000 g/ha [1]: 40%; pest or weed control at 1000 g/ha [2]: 0%; pest or weed control at 1000 g/ha [3]: 20%; pest or weed control at 1000 g/ha [4]: 0%; pest or weed control at 1000 g/ha [5]: 0%; pest or weed control at 1000 g/ha [6]: 0%; pest or weed control at 1000 g/ha [7]: 0%; pest or weed control at 1000 g/ha [8]: 0%; pest or weed control at 1000 g/ha [9]: 0%; pest or weed control at 1000 g/ha [10]: 0%; pest or weed control at 1000 g/ha [11]: 0%; pest or weed control at 1000 g/ha [12]: 0%; melting point: 107 to 108 °C

Q: For `COC(=O)c1nc(-c2ccc(Cl)c(N(C)C)c2F)nc(N)c1C1CC1` [Compound 33-58, 4-amino-2-(4-chloro-3-dimethylamino-2-fluorophenyl)-5-cyclopropyl-6-methoxycarbonylpyrimidine], which pest or weed control at 1000 g/ha [1] is on record?
A: Its pest or weed control at 1000 g/ha is 0%.

Q: And the pest or weed control at 1000 g/ha [2]?
A: Its pest or weed control at 1000 g/ha is 10%.

Q: And the pest or weed control at 1000 g/ha [3]?
A: The pest or weed control at 1000 g/ha was 10%.

Q: What about the pest or weed control at 1000 g/ha [4] of the same compound?
A: Its pest or weed control at 1000 g/ha is 60%.

Q: What about the pest or weed control at 1000 g/ha [5] of the same compound?
A: The pest or weed control at 1000 g/ha was 10%.

Q: What about the pest or weed control at 1000 g/ha [6] of the same compound?
A: The pest or weed control at 1000 g/ha was 10%.

Q: What about the pest or weed control at 1000 g/ha [7] of the same compound?
A: The pest or weed control at 1000 g/ha was 0%.

Q: And the pest or weed control at 1000 g/ha [8]?
A: The pest or weed control at 1000 g/ha was 0%.

Q: What about the pest or weed control at 1000 g/ha [9] of the same compound?
A: Its pest or weed control at 1000 g/ha is 0%.

Q: And the pest or weed control at 1000 g/ha [10]?
A: Its pest or weed control at 1000 g/ha is 0%.

Q: What about the pest or weed control at 1000 g/ha [11] of the same compound?
A: Its pest or weed control at 1000 g/ha is 0%.

Q: And the pest or weed control at 1000 g/ha [12]?
A: Its pest or weed control at 1000 g/ha is 0%.

Q: What about the melting point of the same compound?
A: Its melting point is 156 to 158 °C.

Q: What does the source list for `C=Cc1c(C(=O)OC)nc(C2CC2)nc1[S+](C)[O-]` (centres unmarked) [Compound 2-401, 2-cyclopropyl-5-ethenyl-6-methoxycarbonyl-4-methylsulphinyl-pyrimidine]?
A: pest or weed control at 1000 g/ha [1]: 70%; pest or weed control at 1000 g/ha [2]: 0%; pest or weed control at 1000 g/ha [3]: 80%; pest or weed control at 1000 g/ha [4]: 0%; pest or weed control at 1000 g/ha [5]: 0%; pest or weed control at 1000 g/ha [6]: 70%; pest or weed control at 1000 g/ha [7]: 70%; pest or weed control at 1000 g/ha [8]: 0%; pest or weed control at 1000 g/ha [9]: 10%; pest or weed control at 1000 g/ha [10]: 0%; pest or weed control at 1000 g/ha [11]: 0%; pest or weed control at 1000 g/ha [12]: 70%; melting point: 74 to 75 °C

Q: For `Cc1c(OCC(=O)OC(C)(C)C)nc(C2CC2)nc1OCC(=O)OC(C)(C)C` [Compound 2-389, 4,6-bis(t-butoxy-carbonyl-methoxy)-2-cyclo-propyl-5-methyl-pyrimidine], which pest or weed control at 1000 g/ha [1] is on record?
A: The pest or weed control at 1000 g/ha was 20%.

Q: What about the pest or weed control at 1000 g/ha [2] of the same compound?
A: Its pest or weed control at 1000 g/ha is 0%.

Q: And the pest or weed control at 1000 g/ha [3]?
A: The pest or weed control at 1000 g/ha was 30%.

Q: And the pest or weed control at 1000 g/ha [4]?
A: The pest or weed control at 1000 g/ha was 0%.

Q: What about the pest or weed control at 1000 g/ha [5] of the same compound?
A: The pest or weed control at 1000 g/ha was 0%.

Q: And the pest or weed control at 1000 g/ha [6]?
A: The pest or weed control at 1000 g/ha was 0%.

Q: And the pest or weed control at 1000 g/ha [7]?
A: Its pest or weed control at 1000 g/ha is 0%.

Q: What about the pest or weed control at 1000 g/ha [8] of the same compound?
A: Its pest or weed control at 1000 g/ha is 0%.

Q: What about the pest or weed control at 1000 g/ha [9] of the same compound?
A: The pest or weed control at 1000 g/ha was 0%.

Q: And the pest or weed control at 1000 g/ha [10]?
A: The pest or weed control at 1000 g/ha was 0%.

Q: And the pest or weed control at 1000 g/ha [11]?
A: The pest or weed control at 1000 g/ha was 0%.

Q: What about the pest or weed control at 1000 g/ha [12] of the same compound?
A: The pest or weed control at 1000 g/ha was 20%.

Q: Which results are given for `C=Cc1c(C(=O)OC)nc(C2CC2)nc1N(C)C` [Compound 2-225, 2-Cyclopropyl-4-dimethylamino-5-ethenyl-6-methoxycarbonyl-pyrimidine]?
A: pest or weed control at 1000 g/ha [1]: 30%; pest or weed control at 1000 g/ha [2]: 0%; pest or weed control at 1000 g/ha [3]: 50%; pest or weed control at 1000 g/ha [4]: 0%; pest or weed control at 1000 g/ha [5]: 0%; pest or weed control at 1000 g/ha [6]: 40%; pest or weed control at 1000 g/ha [7]: 20%; pest or weed control at 1000 g/ha [8]: 0%; pest or weed control at 1000 g/ha [9]: 0%; pest or weed control at 1000 g/ha [10]: 0%; pest or weed control at 1000 g/ha [11]: 0%; pest or weed control at 1000 g/ha [12]: 40%
